# Assay results from article PMC6199744, “Development of Chemical Proteomics for the Folateome and Analysis of the Kinetoplastid Folateome” (ACS Infectious Diseases, 2018).
# Like-named read-outs stand apart in the source and are kept apart here.
# What was measured:
# Assay type in all cases: binding
# [1] = molecular target: T1, HeLa cell extract proteins (Homo sapiens, UniProt O95429)
# T1 construct: endogenous in cells; host or cells: HeLa cell extract
# T1 sequence (O95429 1-457): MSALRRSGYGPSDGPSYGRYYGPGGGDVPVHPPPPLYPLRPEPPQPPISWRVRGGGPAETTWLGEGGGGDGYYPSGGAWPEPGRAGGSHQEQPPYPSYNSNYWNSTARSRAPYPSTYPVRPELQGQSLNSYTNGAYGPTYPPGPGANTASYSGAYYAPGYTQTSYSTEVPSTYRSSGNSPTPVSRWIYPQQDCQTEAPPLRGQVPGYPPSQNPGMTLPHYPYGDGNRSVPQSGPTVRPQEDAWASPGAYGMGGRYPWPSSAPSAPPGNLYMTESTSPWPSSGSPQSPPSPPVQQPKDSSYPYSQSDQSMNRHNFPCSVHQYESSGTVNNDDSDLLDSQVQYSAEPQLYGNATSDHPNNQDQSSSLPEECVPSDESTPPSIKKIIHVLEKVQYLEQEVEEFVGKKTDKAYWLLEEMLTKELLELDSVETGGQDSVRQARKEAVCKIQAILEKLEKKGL
# [2] = molecular target: T2, HeLa cell extract proteins (Homo sapiens, UniProt O95382)
# T2 construct: endogenous in cells; host or cells: HeLa cell extract
# T2 sequence (O95382 1-1288): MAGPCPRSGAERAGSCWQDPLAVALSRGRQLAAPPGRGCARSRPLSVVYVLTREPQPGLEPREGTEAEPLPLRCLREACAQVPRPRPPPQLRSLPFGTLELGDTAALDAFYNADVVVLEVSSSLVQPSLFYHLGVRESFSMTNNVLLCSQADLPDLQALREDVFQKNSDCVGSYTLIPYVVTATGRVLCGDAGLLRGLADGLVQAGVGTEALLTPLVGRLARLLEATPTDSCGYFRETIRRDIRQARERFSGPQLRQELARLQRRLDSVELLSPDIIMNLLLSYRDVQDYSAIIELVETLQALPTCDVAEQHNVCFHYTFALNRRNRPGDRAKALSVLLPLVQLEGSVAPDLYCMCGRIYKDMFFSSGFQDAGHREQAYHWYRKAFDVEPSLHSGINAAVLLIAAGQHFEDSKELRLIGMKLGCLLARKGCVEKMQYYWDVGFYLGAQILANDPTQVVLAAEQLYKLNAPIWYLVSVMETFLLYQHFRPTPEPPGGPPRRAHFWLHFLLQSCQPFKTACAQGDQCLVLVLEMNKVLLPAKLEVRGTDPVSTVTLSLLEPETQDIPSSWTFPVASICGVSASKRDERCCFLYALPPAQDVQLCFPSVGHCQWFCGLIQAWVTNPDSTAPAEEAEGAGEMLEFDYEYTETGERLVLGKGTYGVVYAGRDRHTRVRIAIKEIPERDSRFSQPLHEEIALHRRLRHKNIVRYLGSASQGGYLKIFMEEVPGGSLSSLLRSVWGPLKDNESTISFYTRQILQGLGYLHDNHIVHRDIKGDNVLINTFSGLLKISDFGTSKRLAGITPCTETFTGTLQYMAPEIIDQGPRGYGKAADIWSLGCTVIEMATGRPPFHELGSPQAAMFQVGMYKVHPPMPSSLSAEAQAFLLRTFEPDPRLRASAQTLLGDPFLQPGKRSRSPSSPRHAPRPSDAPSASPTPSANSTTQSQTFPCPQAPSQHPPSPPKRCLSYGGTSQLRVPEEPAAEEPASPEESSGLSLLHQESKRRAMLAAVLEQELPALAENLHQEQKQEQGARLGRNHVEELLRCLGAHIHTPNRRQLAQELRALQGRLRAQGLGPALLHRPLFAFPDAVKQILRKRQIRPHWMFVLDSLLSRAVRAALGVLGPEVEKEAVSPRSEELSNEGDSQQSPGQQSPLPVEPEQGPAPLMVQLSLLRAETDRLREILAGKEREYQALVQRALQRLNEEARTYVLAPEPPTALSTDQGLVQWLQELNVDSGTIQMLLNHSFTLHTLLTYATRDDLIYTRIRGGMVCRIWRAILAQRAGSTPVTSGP
# [3] = molecular target: T3, HeLa cell extract proteins (Homo sapiens, UniProt P49721)
# T3 construct: endogenous in cells; host or cells: HeLa cell extract
# [4] = molecular target: T4, HeLa cell extract proteins (Homo sapiens, UniProt P14618)
# T4 construct: endogenous in cells; host or cells: HeLa cell extract
# [5] = molecular target: T5, HeLa cell extract proteins (Homo sapiens, UniProt P63244)
# T5 construct: endogenous in cells; host or cells: HeLa cell extract
# [6] = molecular target: T6, HeLa cell extract proteins (Homo sapiens, UniProt P08865)
# T6 construct: endogenous in cells; host or cells: HeLa cell extract
# [7] = molecular target: T7, HeLa cell extract proteins (Homo sapiens, UniProt P63151)
# T7 construct: endogenous in cells; host or cells: HeLa cell extract
# T7 sequence (P63151 1-447): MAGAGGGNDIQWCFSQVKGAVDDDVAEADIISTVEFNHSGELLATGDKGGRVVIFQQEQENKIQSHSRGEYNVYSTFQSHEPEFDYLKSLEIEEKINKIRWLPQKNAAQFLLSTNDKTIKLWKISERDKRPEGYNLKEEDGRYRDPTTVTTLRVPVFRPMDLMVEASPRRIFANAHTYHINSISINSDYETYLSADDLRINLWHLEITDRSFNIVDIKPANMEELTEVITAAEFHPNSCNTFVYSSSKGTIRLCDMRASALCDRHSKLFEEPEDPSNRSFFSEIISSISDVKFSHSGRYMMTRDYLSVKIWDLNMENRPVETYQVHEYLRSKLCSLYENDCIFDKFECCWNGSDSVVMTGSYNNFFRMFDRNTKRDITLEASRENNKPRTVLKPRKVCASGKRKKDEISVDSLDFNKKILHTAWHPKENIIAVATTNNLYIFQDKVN
# [8] = HeLa, protein PKM2 (CDNA FLJ56065, HIGHLY SIMILAR TO PYRUVATE KINASE ISOZYME M1.)
# [9] = HeLa, protein BAG4 (BAG FAMILY MOLECULAR CHAPERONE REGULATOR 4)
# T4 sequence (P14618 whole entry): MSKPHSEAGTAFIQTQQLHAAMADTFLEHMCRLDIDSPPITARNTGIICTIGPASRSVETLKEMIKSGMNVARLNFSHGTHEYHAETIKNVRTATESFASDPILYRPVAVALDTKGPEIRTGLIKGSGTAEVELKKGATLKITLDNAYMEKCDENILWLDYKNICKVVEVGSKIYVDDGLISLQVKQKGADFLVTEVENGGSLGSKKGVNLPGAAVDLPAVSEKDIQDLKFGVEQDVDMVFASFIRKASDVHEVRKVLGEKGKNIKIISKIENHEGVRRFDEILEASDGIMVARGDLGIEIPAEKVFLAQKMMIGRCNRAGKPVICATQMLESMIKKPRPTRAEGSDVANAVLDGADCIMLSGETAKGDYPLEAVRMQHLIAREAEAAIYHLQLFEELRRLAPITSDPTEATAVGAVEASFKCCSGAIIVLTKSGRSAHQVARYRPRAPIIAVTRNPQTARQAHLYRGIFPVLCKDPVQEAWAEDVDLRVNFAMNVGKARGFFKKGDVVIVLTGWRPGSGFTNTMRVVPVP
# T3 sequence (P49721 whole entry): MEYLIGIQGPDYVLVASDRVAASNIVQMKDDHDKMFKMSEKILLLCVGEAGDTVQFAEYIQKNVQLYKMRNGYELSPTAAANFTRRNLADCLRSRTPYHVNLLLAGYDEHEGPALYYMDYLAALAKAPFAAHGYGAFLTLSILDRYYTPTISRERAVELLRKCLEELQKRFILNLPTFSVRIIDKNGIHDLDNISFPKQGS
smiles,measurement,setting,value
Nc1nc2cccc(-c3ccccc3)c2n1Cc1ccc(Cl)c(Cl)c1 [compound 3],fold changes relative to vehicle control,"[1]; captured protein BAG4, HeLa",1.25
same,fold changes relative to vehicle control,"[2]; HeLa, protein MAP3K6",0.97
same,fold changes relative to vehicle control,"[3]; HeLa, protein PSMB2",1.07
same,fold changes relative to vehicle control,[4]; [8],0.99 fold
same,fold changes relative to vehicle control,"[5]; HeLa, protein GNB2L1",1.12
same,fold changes relative to vehicle control,"[6]; captured protein RPSA, HeLa",1.09
same,fold changes relative to vehicle control,"[7]; protein PPP2R2A, HeLa",0.99
"Nc1nc2[nH]cc(CCc3ccc(C(=O)N[C@@H](CCC(=O)O)C(=O)O)cc3)c2c(=O)[nH]1 [PTX, pemetrexed]",fold changes relative to vehicle control,[1],1.05
same,fold changes relative to vehicle control,[2],1.16
same,fold changes relative to vehicle control,[3],1.13
same,fold changes relative to vehicle control,[4],1.09
same,fold changes relative to vehicle control,[5],1.08
same,fold changes relative to vehicle control,[6],0.9
same,fold changes relative to vehicle control,[7],0.97
"Nc1nc2c(c(=O)[nH]1)N(C=O)C(CNc1ccc(C(=O)N[C@@H](CCC(=O)O)C(=O)O)cc1)CN2 (stereo partly shown) [LEU, leucovorin]",fold changes relative to vehicle control,[1]; [9],1.2
same,fold changes relative to vehicle control,"[2]; HeLa, protein MAP3K6",0.99
same,fold changes relative to vehicle control,"[3]; HeLa, captured protein PSMB2",1.2
same,fold changes relative to vehicle control,"[4]; HeLa, protein PKM2",1.03
same,fold changes relative to vehicle control,"[5]; HeLa, protein GNB2L1",1.08
same,fold changes relative to vehicle control,"[6]; HeLa, protein RPSA",0.87
same,fold changes relative to vehicle control,"[7]; HeLa, captured protein PPP2R2A",0.97
CCCCCCOc1cccc(Cc2cnc(N)nc2N)c1 [compound 2],fold changes relative to vehicle control,"[1]; captured protein BAG4, HeLa",0.93
same,fold changes relative to vehicle control,"[2]; HeLa, protein MAP3K6",0.97
same,fold changes relative to vehicle control,"[3]; HeLa, protein PSMB2",1.24
same,fold changes relative to vehicle control,[4]; [8],2.57 fold
same,fold changes relative to vehicle control,"[5]; HeLa, protein GNB2L1",1.19
same,fold changes relative to vehicle control,"[6]; captured protein RPSA, HeLa",1.11
same,fold changes relative to vehicle control,"[7]; protein PPP2R2A, HeLa",1.05
NCCOCCOCC(=O)Nc1nc2ncc(CNc3ccc(C(=O)NC(CCC(=O)O)C(=O)O)cc3)nc2c(=O)[nH]1 (stereo not shown) [compound 6],fold changes relative to vehicle control,[1]; [9],1.03
same,fold changes relative to vehicle control,"[2]; HeLa, protein MAP3K6",1.19
same,fold changes relative to vehicle control,"[3]; HeLa, captured protein PSMB2",1.03
same,fold changes relative to vehicle control,"[4]; HeLa, protein PKM2",1.29
same,fold changes relative to vehicle control,"[5]; HeLa, protein GNB2L1",1.12
same,fold changes relative to vehicle control,"[6]; HeLa, protein RPSA",0.97
same,fold changes relative to vehicle control,"[7]; HeLa, captured protein PPP2R2A",0.97
CCCCCCOc1ccc(Cc2cnc(N)nc2N)cc1 [compound 1],fold changes relative to vehicle control,"[1]; captured protein BAG4, HeLa",0.99
same,fold changes relative to vehicle control,"[2]; HeLa, protein MAP3K6",0.99
same,fold changes relative to vehicle control,"[3]; HeLa, protein PSMB2",1.03
same,fold changes relative to vehicle control,[4]; [8],1.45 fold
same,fold changes relative to vehicle control,"[5]; HeLa, protein GNB2L1",1.12
same,fold changes relative to vehicle control,"[6]; captured protein RPSA, HeLa",0.97
same,fold changes relative to vehicle control,"[7]; protein PPP2R2A, HeLa",0.92
NCCCNc1ccc(C(=O)NC(CCC(=O)O)C(=O)O)cc1 (stereo not shown) [compound 7],fold changes relative to vehicle control,[1]; [9],1.12
same,fold changes relative to vehicle control,"[2]; HeLa, protein MAP3K6",1.16
same,fold changes relative to vehicle control,"[3]; HeLa, captured protein PSMB2",1.07
same,fold changes relative to vehicle control,"[4]; HeLa, protein PKM2",0.94
same,fold changes relative to vehicle control,"[5]; HeLa, protein GNB2L1",0.99
same,fold changes relative to vehicle control,"[6]; HeLa, protein RPSA",0.84
same,fold changes relative to vehicle control,"[7]; HeLa, captured protein PPP2R2A",0.87
